12 molecules from US20040110763A1, “Pyrazolopyridine compound and pharmaceutical use thereof” (priority 2000, published 2004) can be followed below.

Molecules are shown by their SMILES.

For `CCOCCNC(=O)COc1ccn2nc(-c3ccccc3)c(-c3ccc(=O)n(C(C)C)n3)c2c1` [Example 67, N-(2-Ethoxyethyl)-2-{[3-(3-oxo-2-isopropyl-2,3-dihydropyridazin-6-yl)-2-phenylpyrazolo[1,5-a]pyridin-5-yl]oxy}acetamide], the melting point fell in the range of 126.5 to 127.5 °C.

With `COC(=O)c1ccn2nc(-c3ccccc3)c(-c3ccc(=O)n(C(C)C)n3)c2c1` [Example 69, methyl 3-(3-oxo-2-isopropyl-2,3-dihydropyridazin-6-yl)-2-phenylpyrazolo[1,5-a]pyridine-5-carboxylate], the melting point was in the range of 186 to 187 °C.

Consider `CC(C)n1nc(-c2c(-c3ccccc3)nn3ccc(C#N)cc23)ccc1=O` [Example 71, 3-(3-oxo-2-isopropyl-2,3-dihydropyridazin-6-yl)-2-phenylpyrazolo[1,5-a]pyridine-5-carbonitrile], for which the melting point is 202 to 203 °C. The figure for `CC(C)n1nc(-c2c(-c3ccccc3)nn3ccc(C(=O)N4CCCC4)cc23)ccc1=O` [Example 73, 5-(1-pyrrolidinylcarbonyl)-3-(3-oxo-2-isopropyl-2,3-dihydropyridazin-6-yl)-2-phenylpyrazolo[1,5-a]pyridine] is 189 to 190 °C. For the molecule `CC(C)n1nc(-c2c(-c3ccccc3)nn3ccc(C(=O)NCCN(C)C)cc23)ccc1=O` [Example 76, N-[2-(Dimethylamino)ethyl]-3-(3-oxo-2-isopropyl-2,3-dihydropyridazin-6-yl)-2-phenylpyrazolo[1,5-a]pyridine-5-carboxamide], the melting point is 157 to 158 °C.

The molecule `CCOCCNC(=O)c1ccn2nc(-c3ccccc3)c(-c3ccc(=O)n(C(C)C)n3)c2c1` [Example 78, N-(2-Ethoxyethyl)-3-(3-oxo-2-isopropyl-2,3-dihydropyridazin-6-yl)-2-phenylpyrazolo[1,5-a]pyridine-5-carboxamide] displayed a melting point of 149 to 150 °C. In the case of `CC(C)n1nc(-c2c(-c3ccccc3)nn3ccc(C(=O)NC(C)(C)C)cc23)ccc1=O` [Example 83, N-(tert-Butyl)-3-(3-oxo-2-isopropyl-2,3-dihydropyridazin-6-yl)-2-phenylpyrazolo[1,5-a]pyridine-5-carboxamide] it was 200 to 201 °C; in that of `CC(C)n1nc(-c2c(-c3ccccc3)nn3ccc(C(=O)N4CCC(c5ccccc5)CC4)cc23)ccc1=O` [Example 84, 5-[(4-Phenyl-1-piperidinyl)carbonyl]-3-(3-oxo-2-isopropyl-2,3-dihydropyridazin-6-yl)-2-phenylpyrazolo[1,5-a]-pyridine], 184 to 185 °C. On to `CCN(CC)C(=O)c1ccn2nc(-c3ccccc3)c(-c3ccc(=O)n(C(C)C)n3)c2c1` [Example 85, N,N-Diethyl-3-(3-oxo-2-isopropyl-2,3-dihydropyridazin-6-yl)-2-phenylpyrazolo[1,5-a]pyridine-5-carboxamide], for which the melting point fell in the range of 157 to 158 °C.

`CC(C)OCCNC(=O)c1ccn2nc(-c3ccccc3)c(-c3ccc(=O)n(C(C)C)n3)c2c1` [Example 86, N-(2-Isopropoxyethyl)-3-(3-oxo-2-isopropyl-2,3-dihydropyridazin-6-yl)-2-phenylpyrazolo[1,5-a]pyridine-5-carboxamide] came in with a melting point of 124 to 125 °C. Take `CC(C)n1nc(-c2c(-c3ccccc3)nn3ccc(C(=O)NCc4cccnc4)cc23)ccc1=O` [Example 87, N-(3-Pyridinylmethyl)-3-(3-oxo-2-isopropyl-2,3-dihydropyridazin-6-yl)-2-phenylpyrazolo[1,5-a]pyridine-5-carboxamide]: the melting point lay within 192 to 193 °C. Consider `CNC(=O)c1ccn2nc(-c3ccccc3)c(-c3ccc(=O)n(C(C)C)n3)c2c1` [Example 88, N-Methyl-3-(3-oxo-2-isopropyl-2,3-dihydropyridazin-6-yl)-2-phenylpyrazolo[1,5-a]pyridine-5-carboxamide], for which the melting point lay in the range of 225 to 226 °C.

The term melting point denotes the temperature of the solid-liquid transition.
